The supplement of paper PMC10307832

Columns and labels:
Assay in all cases: relative viability (nuclei count vs DMSO), 5 days (fraction); higher = more cells survive
PC-3 [JPC-3] = test system: PC-3 [JPC-3]
How it was run: (§1)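 One day after seeding in 1536-well plates, lung cancer cell lines were dosed by pin tool. Dosing was either single-drug or a fixed anchor-drug dose plus five library-drug doses (not always all listed) in √10 steps. After 5 days, nuclei were stained in one fix-and-stain step and counted on 4× images, and relative viability is the nuclei count of treated wells over that of vehicle wells, given as the median of duplicate plates.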

NCI-H1944 = test system: NCI-H1944
How it was run: as §1

NCI-H1703 = test system: NCI-H1703
How it was run: as §1

EBC-1 = test system: EBC-1
How it was run: as §1

IA-LM = test system: IA-LM
How it was run: as §1

A549 = test system: A549
How it was run: as §1

NCI-H1299 = test system: NCI-H1299
How it was run: as §1

Calu-6 = test system: Calu-6
How it was run: as §1

HCC-44 = test system: HCC-44
How it was run: as §1

A-427 = test system: A-427
How it was run: as §1

Compound C=C1C(=O)O[C@@H](CCCCCCCC)[C@@H]1C(=O)O [C-75] + O=C(c1cc(Cc2n[nH]c(=O)c3ccccc23)ccc1F)N1CCN(C(=O)C2CC2)CC1 [Olaparib] (partner 8 µM) has a relative viability (PC-3 [JPC-3]; first compound 0.08 µM) of 1.13, a relative viability (PC-3 [JPC-3]; first compound 0.253 µM) of 1.02 and a relative viability (PC-3 [JPC-3]; first compound 0.8 µM) of 1.11. The relative viability (PC-3 [JPC-3]; first compound 2.53 µM) was 1.03, the relative viability (PC-3 [JPC-3]; first compound 8 µM) was 1.2 and the relative viability (NCI-H1944; first compound 0.08 µM) was 0.381. It also gave a relative viability (NCI-H1944; first compound 0.253 µM) of 0.419, a relative viability (NCI-H1944; first compound 0.8 µM) of 0.353 and a relative viability (NCI-H1944; first compound 2.53 µM) of 0.392. For the same compound, the relative viability (NCI-H1944; first compound 8 µM) was 0.428, the relative viability (NCI-H1703; first compound 0.08 µM) was 0.416 and the relative viability (NCI-H1703; first compound 0.253 µM) was 0.391. It also gave a relative viability (NCI-H1703; first compound 0.8 µM) of 0.348, a relative viability (NCI-H1703; first compound 2.53 µM) of 0.441 and a relative viability (NCI-H1703; first compound 8 µM) of 0.432. The relative viability (EBC-1; first compound 0.08 µM) was 0.62, the relative viability (EBC-1; first compound 0.253 µM) was 0.807 and the relative viability (EBC-1; first compound 0.8 µM) was 0.692. It also gave a relative viability (EBC-1; first compound 2.53 µM) of 0.613, a relative viability (EBC-1; first compound 8 µM) of 0.536 and a relative viability (IA-LM; first compound 0.08 µM) of 0.803. The relative viability (IA-LM; first compound 0.253 µM) was 0.885, the relative viability (IA-LM; first compound 0.8 µM) was 0.788 and the relative viability (IA-LM; first compound 2.53 µM) was 0.761. It also gave a relative viability (IA-LM; first compound 8 µM) of 0.767, a relative viability (A549; first compound 0.08 µM) of 0.394 and a relative viability (A549; first compound 0.253 µM) of 0.497. It also gave a relative viability (A549; first compound 0.8 µM) of 0.216, a relative viability (A549; first compound 2.53 µM) of 0.128 and a relative viability (A549; first compound 8 µM) of 0.251. The relative viability (NCI-H1299; first compound 0.08 µM) was 0.946, the relative viability (NCI-H1299; first compound 0.253 µM) was 0.976 and the relative viability (NCI-H1299; first compound 0.8 µM) was 0.974. For the same compound, the relative viability (NCI-H1299; first compound 2.53 µM) was 0.93, the relative viability (NCI-H1299; first compound 8 µM) was 0.924 and the relative viability (Calu-6; first compound 0.08 µM) was 0.558. The relative viability (Calu-6; first compound 0.253 µM) was 0.576, the relative viability (Calu-6; first compound 0.8 µM) was 0.522 and the relative viability (Calu-6; first compound 2.53 µM) was 0.489. It also gave a relative viability (Calu-6; first compound 8 µM) of 0.469, a relative viability (HCC-44; first compound 0.08 µM) of 0.998 and a relative viability (HCC-44; first compound 0.253 µM) of 0.944. For the same compound, the relative viability (HCC-44; first compound 0.8 µM) was 0.962, the relative viability (HCC-44; first compound 2.53 µM) was 0.905 and the relative viability (HCC-44; first compound 8 µM) was 0.919. It also gave a relative viability (A-427; first compound 0.08 µM) of 0.718, a relative viability (A-427; first compound 0.253 µM) of 0.69 and a relative viability (A-427; first compound 0.8 µM) of 0.678. It also gave a relative viability (A-427; first compound 2.53 µM) of 0.708 and a relative viability (A-427; first compound 8 µM) of 0.597.
Oc1nc(-c2ccc(C(F)(F)F)cc2)nc2c1CSCC2 [XAV939] + CC1(C)CCC(c2ccc(Cl)cc2)=C(CN2CCN(c3ccc(C(=O)NS(=O)(=O)c4ccc(N[C@H](CCN5CCOCC5)CSc5ccccc5)c(S(=O)(=O)C(F)(F)F)c4)cc3)CC2)C1 [Navitoclax] (partner 0.5 µM) was tested, and the relative viability (PC-3 [JPC-3]; first compound 0.08 µM) was 0.728, the relative viability (PC-3 [JPC-3]; first compound 0.253 µM) was 0.737 and the relative viability (PC-3 [JPC-3]; first compound 0.8 µM) was 0.814. The relative viability (PC-3 [JPC-3]; first compound 2.53 µM) was 0.724, the relative viability (NCI-H1944; first compound 0.08 µM) was 1.07 and the relative viability (NCI-H1944; first compound 0.253 µM) was 0.986. For the same compound, the relative viability (NCI-H1944; first compound 0.8 µM) was 1.01, the relative viability (NCI-H1944; first compound 2.53 µM) was 1.1 and the relative viability (NCI-H1703; first compound 0.08 µM) was 1.33. The relative viability (NCI-H1703; first compound 0.253 µM) was 1.35, the relative viability (NCI-H1703; first compound 0.8 µM) was 0.89 and the relative viability (NCI-H1703; first compound 2.53 µM) was 0.844. It also gave a relative viability (EBC-1; first compound 0.08 µM) of 0.489, a relative viability (EBC-1; first compound 0.253 µM) of 0.413 and a relative viability (EBC-1; first compound 0.8 µM) of 0.404. The relative viability (EBC-1; first compound 2.53 µM) was 0.447, the relative viability (IA-LM; first compound 0.08 µM) was 0.89 and the relative viability (IA-LM; first compound 0.253 µM) was 0.698. For the same compound, the relative viability (IA-LM; first compound 0.8 µM) was 0.781, the relative viability (IA-LM; first compound 2.53 µM) was 0.463 and the relative viability (A549; first compound 0.08 µM) was 1.49. For the same compound, the relative viability (A549; first compound 0.253 µM) was 1.06, the relative viability (A549; first compound 0.8 µM) was 1.12 and the relative viability (A549; first compound 2.53 µM) was 1.06. It also gave a relative viability (NCI-H1299; first compound 0.08 µM) of 1.07, a relative viability (NCI-H1299; first compound 0.253 µM) of 1.02 and a relative viability (NCI-H1299; first compound 0.8 µM) of 1.1. It also gave a relative viability (NCI-H1299; first compound 2.53 µM) of 1.04, a relative viability (Calu-6; first compound 0.08 µM) of 0.909 and a relative viability (Calu-6; first compound 0.253 µM) of 0.779. For the same compound, the relative viability (Calu-6; first compound 0.8 µM) was 0.867, the relative viability (Calu-6; first compound 2.53 µM) was 0.857 and the relative viability (HCC-44; first compound 0.08 µM) was 1.01. The relative viability (HCC-44; first compound 0.253 µM) was 0.945, the relative viability (HCC-44; first compound 0.8 µM) was 0.948 and the relative viability (HCC-44; first compound 2.53 µM) was 0.899. For the same compound, the relative viability (A-427; first compound 0.08 µM) was 1.03, the relative viability (A-427; first compound 0.253 µM) was 0.989 and the relative viability (A-427; first compound 0.8 µM) was 0.9. It also gave a relative viability (A-427; first compound 2.53 µM) of 0.809.
Oc1nc(-c2ccc(C(F)(F)F)cc2)nc2c1CSCC2 [XAV939] + CC(=O)Nc1cccc(-n2c(=O)n(C3CC3)c(=O)c3c(Nc4ccc(I)cc4F)n(C)c(=O)c(C)c32)c1 [Trametinib] (partner 0.02 µM) showed a relative viability (PC-3 [JPC-3]; first compound 0.253 µM) of 0.613, a relative viability (PC-3 [JPC-3]; first compound 0.8 µM) of 0.722 and a relative viability (PC-3 [JPC-3]; first compound 2.53 µM) of 0.677. The relative viability (NCI-H1944; first compound 0.08 µM) was 0.418, the relative viability (NCI-H1944; first compound 0.253 µM) was 0.388 and the relative viability (NCI-H1944; first compound 0.8 µM) was 0.412. For the same compound, the relative viability (NCI-H1944; first compound 2.53 µM) was 0.292, the relative viability (HCC-44; first compound 0.08 µM) was 1.04 and the relative viability (HCC-44; first compound 0.253 µM) was 0.843. The relative viability (HCC-44; first compound 0.8 µM) was 0.927, the relative viability (HCC-44; first compound 2.53 µM) was 0.924 and the relative viability (A-427; first compound 0.08 µM) was 0.818. It also gave a relative viability (A-427; first compound 0.253 µM) of 0.737, a relative viability (A-427; first compound 0.8 µM) of 0.781 and a relative viability (A-427; first compound 2.53 µM) of 0.658.
Oc1nc(-c2ccc(C(F)(F)F)cc2)nc2c1CSCC2 [XAV939] + CC(=O)c1c(C)c2cnc(Nc3ccc(N4CCNCC4)cn3)nc2n(C2CCCC2)c1=O [Palbociclib] (partner 0.5 µM) showed a relative viability (PC-3 [JPC-3]; first compound 0.253 µM) of 0.5, a relative viability (PC-3 [JPC-3]; first compound 0.8 µM) of 0.523 and a relative viability (PC-3 [JPC-3]; first compound 2.53 µM) of 0.485. The relative viability (NCI-H1944; first compound 0.08 µM) was 0.347, the relative viability (NCI-H1944; first compound 0.253 µM) was 0.337 and the relative viability (NCI-H1944; first compound 0.8 µM) was 0.34. For the same compound, the relative viability (NCI-H1944; first compound 2.53 µM) was 0.267, the relative viability (HCC-44; first compound 0.08 µM) was 0.899 and the relative viability (HCC-44; first compound 0.253 µM) was 0.842. It also gave a relative viability (HCC-44; first compound 0.8 µM) of 0.888, a relative viability (HCC-44; first compound 2.53 µM) of 0.807 and a relative viability (A-427; first compound 0.08 µM) of 0.525. It also gave a relative viability (A-427; first compound 0.253 µM) of 0.52, a relative viability (A-427; first compound 0.8 µM) of 0.502 and a relative viability (A-427; first compound 2.53 µM) of 0.504.
